In US20060166934A1, “Composition comprising phytosphingosine derivatives for apoptosis induction” (Tae-Yoon Kim, priority 2002, published 2006):

How the values were obtained:
[1] = system: immune cells (T cells, B cells, macrophages, monocytes) from spleen of mice; assay: MTT assay, cytotoxicity in immune cells separated from spleen of mice; assay type: cell-based
Description: The effect of the composition of the present invention on the cytotoxicity in immune cells (T cells, B cells, macrophages, monocytes, etc.) was examined. The spleen was removed from normal mice (BDF) and single cells were obtained from the spleen by mechanical aggregation method. And mononuclear cells containing T cells, B cells, macrophages and monocytes were isolated from single cells by density gradient centrifugation method using Ficoll Hypaque. Briefly, single cells were treated with PBS and overlayed on Ficoll Hypaque and centrifuged at 1500 rpm for 30 min. After centrifugation, the cells around the boundary of the Ficoll-Hapaque were collected and washed three times with PBS. The isolated cells were cultured for 24 hours in the presence of 1, 10, 50 and 100 μM of NAPS, TAPS, and PS to examine the effect of cytotoxicity, i.e. the degree of proliferation of the cells. C2-ceramide was used as control. The medium used in this experiment was RPMI 1640 suplemented with 10% of FBS and 100 μg/ml of penicillin and streptomycin.

Th1 cells activation = assay: Mixed leukocyte reaction (MLR), Th1 cells activation by TNBSO3, MTT assay; assay type: cell-based, mice; settings: MLR with TNBSO3-conjugated stimulator cells, FIG. 4
Description: Whether the composition of the present invention has a suppressive effect on the Th1 cells activation which isolate […], IL-12, etc. by reacting with TNBSO3 […] was examined.
The mononuclear cells obtained from spleen of mice as described the above 4 were used for responder cells, and TNBSO3-conjugated cells were used for stimulator cells. The stimulator cells were obtained as follows:
The mononuclear cells were adjusted to be 2×10^7 cells/ml in PBS and the same volume of 20 mM TNBSO3 was added and incubated at 37° C. for 10 min in the dark state. After incubation, the cells wrer washed three times with PBS.
(§1) Each 2×10^5 responder cells and stimulator cells were mixed with each other and cultured for 5 days on the 96-well plate. And RPMI with 10% of serum was used as a medium.
(§2) The above cells were cultured for 24 hours in the presence of 1, 10, 50 and 100 μM of NAPS, TAPS, and PS to examine the proliferation of the cells.
(§3) C2-ceramide was used as control.

[2] = system: HaCaT cells human keratinocyte cell line; assay: MTT assay, combined administration with Vit D3 or calcipotriol; assay type: cell-based; settings: 24 hours; for Cell viability: HaCaT, in %
Description: In order to study the synergistic effect in the cytotoxicity when the compositions of the present invention are administered in combination with Vit D3 or calcipotriol, the cell viability is analyzed by MTT assay method in HaCaT cells human keratinocyte cell line.
To HaCaT cells, 1 μM of Vit D3 or calcipotriol, or 10 μM each of NAPS and TAPS, is administered singly or in combination with each other, and they are cultured for 24 hours. And the effects of these drugs on the cytotoxicity according to the single or combined administration are observed by MTT assay. C2-ceramide is used for comparison.

caspase-3 = assay: Immunoblot analysis of active caspase-3; assay type: cell-based, human; settings: HaCaT, FIG. 11
Description: In the confirmation of apoptosis-related proteins, the immunoblot analysis is performed in order to look into the effects of the compositions of the present invention on the expression of caspase-3, p53, and Chk1 proteins related to the induction of apoptosis.
HaCaT cells are cultured on a 100-mm dish and collected at the indicative time. The proteins are extracted by adding 500 μl of RIPA lysis buffer (1% Nonidet P-40, 1% sodium deoxycholate, 0.1% SDS, […], 0.01 M sodium phosphate, pH 7.2, 2 mM EDTA, 50 mM sodium fluoride and 0.2 mM sodium vanadate), and the concentration is measured by using the Bradford method. 1
Extracted proteins is electrophoresed on 12% polyacrylamide gel, and they are transferred to the nitrocellulose membrane. The membrane blocked with 5% non-fat milk is reacted with the primary antibodies (caspase-3, p53, and Chk1), washed, and reacted with the secondary HRP-conjugated antibody. The intensity of proteins is analyzed by using the ECL kit.

[3] = system: human keratinocyte cell line HaCaT cells; assay: MTT assay, cytotoxicity in human keratinocyte cell line; assay type: cell-based
Description: (§4) Firstly, the cytotoxicity is measured by the MTT assay. Phytosphingosine (PS), phytosphingosine-HCl (PS-HCl), C6-phytosphingosine (C6-PS), CLA-phytosphingosine (CLA-PS), tetraacetyl phytosphingosine (TAPS), and N-acetyl phytosphingosine (NAPS) are dissolved into DMSO to have the final concentration of 1-100 μM.
(§5) In order to study the effects of the compositions of the present invention on the cytotoxicity in the human keratinocyte cell line HaCaT cells, the cell viability is analyzed by the MTT (3-[4,5-dimethylthiazol-2-yl]-2,5-diphenyltetrazolium bromide) assay. HaCaT cells are supplied by Professor N. Fuseng of German Cancer Research in Germany. HaCaT cells are seeded in a density of 1×10^6 cells in a […] and cultured in DMEM (Dulbecco's Modified Eagle Medium) containing 10% fetal bovine serum (FBS, GIBCO), 100 units/ml penicillin, and 100 μg/ml streptomycin for 48 hours. They are treated with trypsin and 1-2×10^4 cells per well are seeded again in a 96-well plate by using a serum-free culture medium, about 3 hours after which they are cultured by treatment with phytosphingosine derivatives. After they are cultured for 24 hours, the MTT reagent is added at a concentration of 2 mg/ml, cultured for 4 hours, suspended in DMSO after removing the culture medium completely in order to measure O.D. at 540 nm. C2-ceramide is used for comparison.

[4] = system: peripheral blood mononuclear cells (PBMC); assay: MTT assay, cytotoxicity in peripheral blood mononuclear cells; assay type: cell-based, human; settings: up to 100 μM, 24 hours, FIG. 3
Description: The effects of the composition of the present invention on the cytotoxicity in immune cells (T cells, B cells, macrophages, monocytes, etc.) obtained from human blood were examined. The blood was obtained from healthy volunteers and PBMC from the blood by mechanical aggregation method. And mononuclear cells containing T cells, B cells, macrophages and monocytes were isolated from single cells by density gradient centrifugation method using Ficoll Hypaque. Briefly, single cells were treated with PBS and overlayed on Ficoll Hypaque and centrifuged at 1500 rpm for 30 min. After centrifugation, the cells around the boundary of the Ficoll-Hapaque were collected and washed three times with PBS. […] And RPMI with 10% of serum was used as a medium. The isolated cells were cultured for 24 hours in the presence of 1, 10, 50 and 100 μM of NAPS, TAPS, and PS to examine the effect of cytotoxicity, i.e. the degree of proliferation of the cells. C2-ceramide was used as control.

[5] = system: Th1 cells activation against allogenic cells (PBMC); assay: Reactions among allogenic cells, Th1 cells activation, MTT assay; assay type: cell-based, human; settings: 50 μM, FIG. 5
From the text: Whether the composition of the present invention has a suppressive effect on the Th1 cells activation by allogenic cells in immune reation was examined.
PBMC obtained from different volunteers as described in the above 5 were used for responder cells and stimulator cells respectively. PBMC for stimulator cells were used after X-ray irradiation (3000 rad) to inhibit the proliferation of stimulator cells.
as §1, §2, §3

[6] = system: A431 cells, human skin cancer cell line; assay: MTT assay, cytotoxicity in human skin cancer cell line; assay type: cell-based
Description: as §4, §5
In order to study the effects of the compositions of the present invention on the cytotoxicity in A431 cells, human skin cancer cell line, the MTT assay is used. The method of cell culture and MTT assay are the same as those in the above method. C2-ceramide is used for comparison.

[7] = system: human umbilical vein endothelial cells (HUVEC); assay: MTT assay, cytotoxicity in HUVEC; assay type: cell-based
Description: as §4, §5
The MTT assay is used for the above purpose. Primary human umbilical vein endothelial cells are cultured from the human umbilical vein. The method of cell culture and the MTT assay are the same as those in the above. C2-ceramide is used for comparison.

HaCaT cells = assay: MTT assay, combined treatment with UVB irradiation; assay type: cell-based, human; set-up: Cell viability: unit not given here; settings: HaCaT
Description: In order to study the synergistic effect in the cytotoxicity by the cotreatment with administration of the compositions of the present invention and with UVB irradiation, the cell viability is analyzed by MTT assay method in HaCaT cells. On a 100-mm dish, 1×10^6 HaCaT cells are seeded and cultured in DMEM containing 10% fetal bovine serum, 100 units/ml penicillin, and 100 μg/ml streptomycin for 48 hours. They are treated with trypsin, and 1-2×10^4 cells per well are seeded on a 96-well plate again by using a serum-free medium, which is removed after about 3 hours. HaCaT cells are washed with PBS three times, and 3.5 ml of PBS per plate is added. It is then irradiated with 200 J/m^2 of UVB. After irradiation, the medium is replaced with a DMEM medium. Then it is treated with the phytosphingosine derivatives of the present invention, and cultured for 24 hours. After 2 mg/ml of the MTT reagent is added, it is cultured for 4 hours. The medium is removed completely, the cells are suspended in DMSO, and O.D. is measured at 540 nm.

CCCCCCCCCCCCC/C=C/[C@@H](O)[C@H](CO)NC(C)=O [C2-ceramide, reference compound]
IC50 [1]: ~75 µM
concentration showing a suppressive effect on Th1 cells activation (Th1 cells activation): 50 µM
Cell viability ([2]; 10 μM combined with Vit D3 (1 μM)): 71 ± 9
Cell viability ([2]; 10 μM combined with calcipotriol (1 μM)): 70 ± 4
Cell viability ([2]; 10 μM singly): 78 ± 2
time to maximum active caspase-3 (caspase-3; after treatment): ≤ 3 h
maximum increase of active caspase-3 (expression of induction) (caspase-3; immunoblot): 2.5 folds
Cell viability ([3]; 1 µM): 97 ± 3.8
Cell viability ([3]; 3 µM): 98 ± 2.5
Cell viability ([3]; 10 µM): 75 ± 1.3
Cell viability ([3]; 30 µM): 33 ± 0.6
cytotoxicity to PBMC [4]: did not show the cytotoxicity
suppressive effect on Th1 cells activation against allogenic cells [5]: almost no suppressive effect
Cell viability ([6]; 3 µM): 113 ± 19.8
Cell viability ([6]; 10 µM): 97 ± 14.7
Cell viability ([6]; 30 µM): 82 ± 1.4
Cell viability ([6]; 50 µM): 74 ± 12.8
Cell viability ([7]; 3.5 µM): 90 ± 11.6
Cell viability ([7]; 7 µM): 60 ± 7.7
Cell viability ([7]; 15 µM): 61 ± 8.4
Cell viability ([7]; 30 µM): 34 ± 2.3

CCCCCCCCCCCCCCC(O)C(O)C(CO)NC(=O)CCCCC (centres unmarked) [C6-PS, C6-phytosphingosine]
Cell viability ([3]; 1 µM): 84 ± 16.8
Cell viability ([3]; 3 µM): 96 ± 7.2
Cell viability ([3]; 10 µM): 74 ± 10.1
Cell viability ([3]; 30 µM): 87 ± 1.3
Cell viability ([6]; 3 µM): 106 ± 9.7
Cell viability ([6]; 10 µM): 61 ± 8.1
Cell viability ([6]; 30 µM): 57 ± 10.4
Cell viability ([6]; 50 µM): 44 ± 9.6

CCCCCCCCCCCCCC[C@@H](O)[C@@H](O)[C@@H](N)CO.Cl [PS-HCl, phytosphingosine-HCl]
Cell viability ([3]; human, 24 h, 1 µM): 100 ± 4.1
Cell viability ([3]; human, 24 h, 3 µM): 101 ± 2.2
Cell viability ([3]; human, 24 h, 10 µM): 79 ± 7.0
Cell viability ([3]; human, 24 h, 30 μM): 36 ± 6.8
Cell viability ([6]; human, 24 h, 3 µM): 105 ± 5.8
Cell viability ([6]; human, 24 h, 10 µM): 109 ± 8.6
Cell viability ([6]; human, 24 h, 30 μM): 7 ± 1.6
Cell viability ([6]; human, 24 h, 50 μM): 2 ± 0.2
cytotoxicity ([6]; human, 24 h, 50 μM): 95-98%
Cell viability (HaCaT cells; 1 μM + UVB 200 J/m^2, 24 hours): 39 ± 4.5
Cell viability (HaCaT cells; 1 μM, no UVB, 24 hours): 83 ± 7.9
Cell viability (HaCaT cells; 3 μM + UVB 200 J/m^2, 24 hours): 24 ± 2.0
Cell viability (HaCaT cells; 3 μM, no UVB, 24 hours): 78 ± 10.0
Cell viability (HaCaT cells; 5 μM + UVB 200 J/m^2, 24 hours): 25 ± 1.9
Cell viability (HaCaT cells; 5 μM, no UVB, 24 hours): 78 ± 6.7
Cell viability (HaCaT cells; 10 μM + UVB 200 J/m^2, 24 hours): 2 ± 0.5
Cell viability (HaCaT cells; 10 μM, no UVB, 24 hours): 75 ± 8.2

C=C1CC[C@H](O)C/C1=C/C=C1\CCC[C@]2(C)[C@@H]([C@H](C)CCCC(C)C)CC[C@@H]12 [Vit D3, vitamin D3, reference compound]
toxicity ([2]; 1 μM singly): 19%
Cell viability ([2]; 1 μM singly): 81 ± 3

CLA-phytosphingosine [CLA-PS]
Cell viability ([3]; 1 µM): 66 ± 7.8
Cell viability ([3]; 3 µM): 64 ± 9.9
Cell viability ([3]; 10 µM): 58 ± 0.4
Cell viability ([3]; 30 µM): 55 ± 9.1
Cell viability ([6]; 3 µM): 91 ± 11.0
Cell viability ([6]; 10 µM): 98 ± 12.9
Cell viability ([6]; 30 µM): 60 ± 6.2
Cell viability ([6]; 50 µM): 65 ± 5.5
